Measurements published in article PMC6690791 (Bioorganic & medicinal chemistry letters, 2019).
Like-named read-outs stand apart in the source and are kept apart here.

Experiments:
Type in all cases: biochemical
[1] = biological target: HCV genotype 1b NS3/4A protease (Hepatitis C virus genotype 1b, UniProt P26663); assay: fluorescence-based enzymatic assay, genotype 1b NS3/4A
[2] = biological target: R155K NS3/4A genotype 1b (Hepatitis C virus genotype 1b, UniProt P26663, R1181K); assay: enzymatic inhibition assay, drug-resistant mutant R155K of genotype 1b
[3] = biological target: A156S NS3/4A genotype 1b (Hepatitis C virus genotype 1b, UniProt P26663, A1182S); assay: enzymatic inhibition assay, drug-resistant mutant A156S of genotype 1b
[4] = biological target: V36M NS3/4A genotype 1b (Hepatitis C virus genotype 1b, UniProt P26663, V1062M); assay: enzymatic inhibition assay, drug-resistant mutant V36M of genotype 1b
[5] = biological target: HCV genotype 3a NS3/4A protease (Hepatitis C virus genotype 3a, UniProt Q81258); assay: enzymatic inhibition assay, genotype 3a NS3/4A

IC50 [1] [µM]	Structure (SMILES)	inhibitory activity (IC50) [2]	also measured
10 to 100	CSc1cccc2sc(NC(=O)c3ccccc3NS(=O)(=O)c3ccc(C)cc3)nc12 [F2730–0247]	–	–
2 to 5	Cc1ccc(S(=O)(=O)Nc2ccccc2C(=O)Nc2nc3ccc4ccccc4c3s2)cc1 [F0325–0092]	–	–
5 to 10	CSc1cccc(NC(=O)Cc2csc(NS(=O)(=O)c3ccccc3)n2)c1 [F2322–0904]	–	–
5 to 10	Cc1ccc(S(=O)(=O)Nc2ccccc2C(=O)Nc2nc3c(ccc4ccccc43)s2)cc1 [F0325–0093]	–	–
2 to 5	Cc1ccc(S(=O)(=O)Nc2ccccc2C(=O)Nc2nc3ccc4sc(C)nc4c3s2)cc1 [F0725–0019]	–	–
10 to 100	Cc1ccc(S(=O)(=O)Nc2ccccc2C(=O)Nc2nc3c(Br)cccc3s2)cc1 [F1822–0567]	–	–
2 to 5	Cc1ccc(S(=O)(=O)Nc2ccccc2C(=O)Nc2nc3c(C)cc(C)cc3s2)cc1 [F0325–0086]	–	–
–	Cc1cc(NC(=O)Cc2csc(NS(=O)(=O)c3ccccc3)n2)ccc1Br [F2322–0885]	–	IC50 ([5]; genotype 3a NS3/4A): did not have any effect
5 to 10	Cc1c(Cl)cccc1NC(=O)Cc1csc(NS(=O)(=O)c2ccccc2)n1 [F2322–0877]	–	–

Structure (SMILES)	IC50 [1] [µM]	inhibitory activity (IC50) [2]	also measured
Cc1ccc(S(=O)(=O)Nc2ccccc2C(=O)Nc2nc3c(cc4c5c(cccc53)CC4)s2)cc1 [F0816–0111]	2 to 5	did not retain activity	–
Cc1ccc(S(=O)(=O)Nc2ccccc2C(=O)Nc2nc(-c3cc(Cl)ccc3Cl)cs2)cc1 [F0325–0125]	< 2	did not retain activity	–
Cc1ccc(S(=O)(=O)Nc2ccccc2C(=O)Nc2nc3c(Cl)ccc(Cl)c3s2)cc1 [F1813–0710]	< 2	maintains its activities	inhibitory activity (IC50) [3]: maintains its activities; inhibitory activity (IC50) [4]: maintains its activities; IC50 [5]: 14 µM
Cc1ccc(S(=O)(=O)Nc2ccccc2C(=O)Nc2nc3c(C)ccc(Cl)c3s2)cc1 [F1813–0711]	5 to 10	did not retain activity	–
